Consider 19 compounds from patent US10131653B2, “Heterocyclic compound” (TAKEDA PHARMACEUTICAL COMPANY LIMITED, priority 2015, dated 2018).

One series concerns the target T1, human OX2 receptor (Homo sapiens, UniProt O43614).
T1 construct: expressed in transfected cells; host or cells: CHO cells
T1 sequence (O43614 1-444): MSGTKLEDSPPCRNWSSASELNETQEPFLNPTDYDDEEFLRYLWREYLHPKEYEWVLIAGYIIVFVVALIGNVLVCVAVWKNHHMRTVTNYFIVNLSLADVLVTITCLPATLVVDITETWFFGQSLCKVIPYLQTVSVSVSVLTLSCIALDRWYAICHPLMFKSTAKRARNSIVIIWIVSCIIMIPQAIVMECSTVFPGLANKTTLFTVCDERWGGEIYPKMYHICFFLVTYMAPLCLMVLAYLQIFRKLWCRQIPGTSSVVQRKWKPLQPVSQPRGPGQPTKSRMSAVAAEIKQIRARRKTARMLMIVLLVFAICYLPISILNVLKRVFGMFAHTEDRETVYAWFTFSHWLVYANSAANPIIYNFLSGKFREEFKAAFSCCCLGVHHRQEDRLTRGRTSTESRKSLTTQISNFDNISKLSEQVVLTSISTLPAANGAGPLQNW
Put plainly: Measurement of orexin receptor antagonistic activity (calcium fluorescence, FLIPRtetra). Format: cell-based. To be noted: CHO, 10 μM test compound; CHO cells expressing human OX2 receptor; OX-A 0.3 nM; read-out: Human Orexin2 receptor inhibition (at 10 μM). In outline:
(§1)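 Calcium fluorescence measured by FLIPRtetra every second for 2 min after orexin-A challenge, 1 nM final for OX1 and 0.3 nM final for OX2. Receptor-expressing CHO cells received compound in HEPES-buffered HBSS with 0.1% BSA just before agonist.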

The next series has as its target T2, human OX1 receptor (Homo sapiens, UniProt O43613).
T2 construct: expressed in transfected cells; host or cells: CHO cells
T2 sequence (O43613 1-425): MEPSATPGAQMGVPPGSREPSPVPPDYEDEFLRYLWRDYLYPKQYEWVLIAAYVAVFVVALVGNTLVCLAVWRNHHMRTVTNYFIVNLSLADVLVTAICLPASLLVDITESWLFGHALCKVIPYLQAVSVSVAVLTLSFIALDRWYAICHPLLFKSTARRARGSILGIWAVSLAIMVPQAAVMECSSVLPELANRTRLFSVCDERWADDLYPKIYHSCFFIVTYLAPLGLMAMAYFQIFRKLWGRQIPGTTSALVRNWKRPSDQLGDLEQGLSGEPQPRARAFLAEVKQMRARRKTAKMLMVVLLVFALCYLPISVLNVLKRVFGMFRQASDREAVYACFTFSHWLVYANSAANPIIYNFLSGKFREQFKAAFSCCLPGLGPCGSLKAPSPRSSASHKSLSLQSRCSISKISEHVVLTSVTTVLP
The series is described as above. Format: cell-based. To be noted: CHO, 10 μM test compound; CHO cells expressing human OX1 receptor; OX-A 1 nM; read-out: Human Orexin1 receptor inhibition (at 10 μM). The procedure, abridged: as §1

Another series concerns Orexin-A-induced rats. The series can be described thus: Locomotor activity test using Orexin-A-induced rats. Format: in vivo. To be noted: rat. How it is done:
The male SD rats described in Experimental Example 2 were used.
From the day before drug administration, the animals were acclimated to a locomotor activity measurement apparatus (Muromachi Kikai Co., Ltd.). Solvent (0.5% (w/v) methyl cellulose solution) and the compound (30 mg/kg) of Example 1 or the compound (30 mg/kg) of Example 2 were subcutaneously administered 30 min before administration of saline or Orexin-A (1 nmol). The locomotor activity was quantified for 30 min to 90 min after the cerebral ventricular administration of Orexin-A. A comparison with saline+solvent administration group was tested by Student's t-test (*p≤0.05). A comparison with Orexin-A+solvent administration group was tested by Dunnett's test (#p≤0.05).

Series [1] in a line: Measurement of solubility. In kind it is physicochemical. To be noted: aqueous buffer, thermodynamic from solid; Britton-Robinson's Buffer pH 3, 37° C., shaking 2 hr; crystals from n-heptane suspension. As for the experimental part: n-Heptane was added to the compounds of Examples 1, 2 and 102 at 40 mg/mL, respectively, and the mixtures were continued to be stirred at room temperature in a suspended state. After 3 to 7 days, the mixtures were filtered, and the obtained crystals as a sample were subjected to powder X-ray diffraction measurement (measurement condition: mentioned above) and solubility measurement.

Each structure is given as a SMILES string. Where only a bound is given, the exact number is not on record here.

For the compound `Cc1cc(N2CCN(C(=O)c3cc(F)ccc3-n3nccn3)C[C@H](C)O2)nc(C)n1` [Example 1, ((7S)-2-(2,6-dimethylpyrimidin-4-yl)-7-methyl-1,2,5-oxadiazepan-5-yl)(5-fluoro-2-(2H-1,2,3-triazol-2-yl)phenyl)methanone], the figures for the inhibition at 10 µM on human OX2 receptor and at human OX1 receptor were 98% and 47%, respectively. The “Locomotor activity increased by cerebral ventricular administration of Orexin-A” value in the series on Orexin-A-induced rats (30 mg/kg subcutaneous) is listed as “significantly decreased”. Besides, the “Locomotor activity (Counts/90 min)” value with Orexin-A-induced rats (30 mg/kg subcutaneous 30 min before Orexin-A (1 nmol) cerebral ventricular administration, mean) worked out at 3528 Counts/90 min. The solubility at 2 h in series [1] is at least 5000 µg/mL.
`Cc1cc(N2CCN(C(=O)c3c(C)cccc3-c3ncccn3)CCO2)nc(C)n1` [Example 216, (2-(2,6-dimethylpyrimidin-4-yl)-1,2,5-oxadiazepan-5-yl)(2-methyl-6-(pyrimidin-2-yl)phenyl)methanone]: the inhibition at 10 µM was found to be 101% at human OX2 receptor and 59% at human OX1 receptor.
On the same counts, the results for `Cc1ccc(C(=O)N2CCN(c3cc(C)nc(C)n3)O[C@@H](C)C2)c(-c2ncccn2)c1` [Example 217, ((7S)-2-(2,6-dimethylpyrimidin-4-yl)-7-methyl-1,2,5-oxadiazepan-5-yl)(4-methyl-2-(pyrimidin-2-yl)phenyl)methanone] are 101% and 50%.
Taken in the same sequence, the figures for `Cc1cc(N2CCN(C(=O)c3ccc(F)cc3-c3ncccn3)C[C@H](C)O2)nc(C)n1` [Example 218, ((7S)-2-(2,6-dimethylpyrimidin-4-yl)-7-methyl-1,2,5-oxadiazepan-5-yl)(4-fluoro-2-(pyrimidin-2-yl)phenyl)methanone] were 101% and 91%.
As for `Cc1nccc(N2CCN(C(=O)c3cc(Cl)ccc3-c3ncccn3)C[C@H](C)O2)n1` [Example 219, (5-chloro-2-(pyrimidin-2-yl)phenyl)((7S)-7-methyl-2-(2-methylpyrimidin-4-yl)-1,2,5-oxadiazepan-5-yl)methanone], the inhibition at 10 µM on human OX2 receptor was 100%; at human OX1 receptor it was 72%.
Turning to `Cc1cc(N2CCN(C(=O)c3cccc(F)c3-c3ncccn3)C[C@H](C)O2)nc(C)n1` [Example 220, ((7S)-2-(2,6-dimethylpyrimidin-4-yl)-7-methyl-1,2,5-oxadiazepan-5-yl)(3-fluoro-2-(pyrimidin-2-yl)phenyl)methanone], the inhibition at 10 µM amounted to 101% at human OX2 receptor and 15% on human OX1 receptor.
As for `Cc1cc(N2CCN(C(=O)c3cc(Cl)ccc3-c3ncc(F)cn3)[C@H](C)CO2)nc(C)n1` [Example 221, (5-chloro-2-(5-fluoropyrimidin-2-yl)phenyl)((6R)-2-(2,6-dimethylpyrimidin-4-yl)-6-methyl-1,2,5-oxadiazepan-5-yl)methanone], the inhibition at 10 µM at human OX2 receptor turned out to be 102%; on human OX1 receptor it was 51%.
On the same counts, the results for `Cc1cc(N2CCN(C(=O)c3ccccc3-c3ncc(F)cn3)CCO2)nc(C)n1` [Example 222, (2-(2,6-dimethylpyrimidin-4-yl)-1,2,5-oxadiazepan-5-yl)(2-(5-fluoropyrimidin-2-yl)phenyl)methanone] are 99% and 32%.
As to `Cc1cc(N2CCN(C(=O)c3cc(F)c(F)cc3-c3ncc(F)cn3)CCO2)nc(C)n1` [Example 223, (4,5-difluoro-2-(5-fluoropyrimidin-2-yl)phenyl)(2-(2,6-dimethylpyrimidin-4-yl)-1,2,5-oxadiazepan-5-yl)methanone], the inhibition at 10 µM stood at 101% at human OX2 receptor and 17% on human OX1 receptor.
For `Cc1cc(N2CCN(C(=O)c3cc(Cl)ccc3-c3ncc(F)cn3)CCO2)nc(C)n1` [Example 224, (5-chloro-2-(5-fluoropyrimidin-2-yl)phenyl)(2-(2,6-dimethylpyrimidin-4-yl)-1,2,5-oxadiazepan-5-yl)methanone], the inhibition at 10 µM at human OX2 receptor worked out at 100%; on human OX1 receptor it was 53%.
On the same counts, the results for `Cc1nc(N2CCN(C(=O)c3cc(Cl)ccc3-c3ncccn3)CCO2)cc(C(F)(F)F)n1` [Example 225, (5-chloro-2-(pyrimidin-2-yl)phenyl)(2-(2-methyl-6-(trifluoromethyl)pyrimidin-4-yl)-1,2,5-oxadiazepan-5-yl)methanone] are 103% and 74%.
With `Cc1cc(N2CCN(C(=O)c3cc(Cl)ccc3-c3ncccn3)CCO2)nc(C)n1` [Example 226, (5-chloro-2-(pyrimidin-2-yl)phenyl)(2-(2,6-dimethylpyrimidin-4-yl)-1,2,5-oxadiazepan-5-yl)methanone], the inhibition at 10 µM on human OX2 receptor was determined as 101%; at human OX1 receptor, 80%.
For `Cc1nc(N2CCN(C(=O)c3cc(F)c(F)cc3-c3ncccn3)C[C@H](C)O2)cc(C(F)(F)F)n1` [Example 227, (4,5-difluoro-2-(pyrimidin-2-yl)phenyl)((7S)-7-methyl-2-(2-methyl-6-(trifluoromethyl)pyrimidin-4-yl)-1,2,5-oxadiazepan-5-yl)methanone], the results for the inhibition at 10 µM at human OX2 receptor and at human OX1 receptor were 97% and 78%, respectively.
On to `Cc1cc(N2CCN(C(=O)c3cc(F)c(F)cc3-c3ncccn3)CCO2)nc(C)n1` [Example 228, (4,5-difluoro-2-(pyrimidin-2-yl)phenyl)(2-(2,6-dimethylpyrimidin-4-yl)-1,2,5-oxadiazepan-5-yl)methanone], for which the values for the inhibition at 10 µM at human OX2 receptor and on human OX1 receptor were 99% and 36%, respectively.
For `Cc1nccc(N2CCN(C(=O)c3cc(Cl)ccc3-c3ncccn3)[C@H](C)CO2)n1` [Example 229, (5-chloro-2-(pyrimidin-2-yl)phenyl)((6R)-6-methyl-2-(2-methylpyrimidin-4-yl)-1,2,5-oxadiazepan-5-yl)methanone], the inhibition at 10 µM worked out at 101% at human OX2 receptor and 40% at human OX1 receptor.
Taken in the same sequence, the figures for `Cc1ncc(Cl)c(N2CCN(C(=O)c3cc(Cl)ccc3-c3ncccn3)[C@H](C)CO2)n1` [Example 230, ((6R)-2-(5-chloro-2-methylpyrimidin-4-yl)-6-methyl-1,2,5-oxadiazepan-5-yl)(5-chloro-2-(pyrimidin-2-yl)phenyl)methanone] were 103% and 66%.
On to `Cc1cc(N2CCN(C(=O)c3cc(F)c(F)cc3-c3ncccn3)[C@H](C)CO2)nc(C)n1` [Example 231, (4,5-difluoro-2-(pyrimidin-2-yl)phenyl)((6R)-2-(2,6-dimethylpyrimidin-4-yl)-6-methyl-1,2,5-oxadiazepan-5-yl)methanone], for which the inhibition at 10 µM at human OX2 receptor amounted to 103%; on human OX1 receptor, 38%.
`Cc1cc(N2CCN(C(=O)c3ccccc3-c3noc(C)n3)C[C@H](C)O2)nc(C)n1` [Example 232, ((7S)-2-(2,6-dimethylpyrimidin-4-yl)-7-methyl-1,2,5-oxadiazepan-5-yl)(2-(5-methyl-1,2,4-oxadiazol-3-yl)phenyl)methanone]: the values for the inhibition at 10 µM on human OX2 receptor and on human OX1 receptor were 102% and 55%, respectively.
Taken in the same sequence, the figures for `COC(=O)c1ccccc1C(=O)N1CCN(c2cc(C)nc(C)n2)O[C@@H](C)C1` [Example 233, methyl 2-(((7S)-2-(2,6-dimethylpyrimidin-4-yl)-7-methyl-1,2,5-oxadiazepan-5-yl)carbonyl)benzoate] were 87% and 17%.

In general, inhibition refers to the relative decrease from the control value, in per cent. A word on the solubility: it is the concentration that dissolves in the medium under given conditions.
